The values that follow come from ChEMBL document CHEMBL1201862, “PubChem BioAssay data set” (2004).

Assay [1] addresses Phospholipase D1 (Homo sapiens, UniProt Q13393). Description: PLD1 inhibitor potency in cells, dose response (AID 602151).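 Note: cellular PLD1 assay in Calu-1 cells stimulated with PMA.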 It is filed as functional.
The target in assay [2] is T1, Sentrin-specific protease 8 (Homo sapiens, UniProt Q96LD8).
T1 sequence (Q96LD8 whole entry): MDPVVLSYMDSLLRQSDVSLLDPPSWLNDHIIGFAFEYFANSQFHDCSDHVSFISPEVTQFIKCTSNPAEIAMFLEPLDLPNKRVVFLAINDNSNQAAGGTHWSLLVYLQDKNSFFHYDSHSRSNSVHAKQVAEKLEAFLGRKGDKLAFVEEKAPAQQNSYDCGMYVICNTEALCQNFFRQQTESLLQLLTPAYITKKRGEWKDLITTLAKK
In words: SENP8 protease inhibitors, SAR follow-up, biochemical, luminescence (AID 504501). It is filed as functional.

Assay [3] has as its target T2, Caspase-3 (Homo sapiens, UniProt P42574).
T2 sequence (P42574 whole entry): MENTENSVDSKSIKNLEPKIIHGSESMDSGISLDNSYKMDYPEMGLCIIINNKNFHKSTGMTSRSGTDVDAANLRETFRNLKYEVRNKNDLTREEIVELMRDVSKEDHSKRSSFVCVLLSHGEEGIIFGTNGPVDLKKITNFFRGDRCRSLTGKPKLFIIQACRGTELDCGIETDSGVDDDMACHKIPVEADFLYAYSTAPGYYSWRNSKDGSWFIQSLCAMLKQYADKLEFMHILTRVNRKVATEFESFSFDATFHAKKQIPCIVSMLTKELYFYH
Description: caspase-3 inhibitors as off-family protease, SAR follow-up, selectivity assay for SENP protease inhibitor project, biochemical, luminescence, set 2 (AID 588599). It is filed as functional.

Assay [4] has as its target T1, Sentrin-specific protease 8. Description: SENP8 protease inhibitors, SAR follow-up, biochemical, luminescence, set 2 (AID 588601). It is filed as functional.
Assay [5] deals with T2, Caspase-3. In words: SAR Analysis of small molecule inhibitors of Sentrin-specific proteases (SENPs) using a Caspase-3 Selectivity assay. [Related pubchem assays (depositor defined):AID2540, AID2599, AID434973, AID489001]. It is filed as functional.
Assay [6] concerns the target T3, Sentrin-specific protease 7 (Homo sapiens, UniProt Q9BQF6).
T3 sequence (Q9BQF6 whole entry): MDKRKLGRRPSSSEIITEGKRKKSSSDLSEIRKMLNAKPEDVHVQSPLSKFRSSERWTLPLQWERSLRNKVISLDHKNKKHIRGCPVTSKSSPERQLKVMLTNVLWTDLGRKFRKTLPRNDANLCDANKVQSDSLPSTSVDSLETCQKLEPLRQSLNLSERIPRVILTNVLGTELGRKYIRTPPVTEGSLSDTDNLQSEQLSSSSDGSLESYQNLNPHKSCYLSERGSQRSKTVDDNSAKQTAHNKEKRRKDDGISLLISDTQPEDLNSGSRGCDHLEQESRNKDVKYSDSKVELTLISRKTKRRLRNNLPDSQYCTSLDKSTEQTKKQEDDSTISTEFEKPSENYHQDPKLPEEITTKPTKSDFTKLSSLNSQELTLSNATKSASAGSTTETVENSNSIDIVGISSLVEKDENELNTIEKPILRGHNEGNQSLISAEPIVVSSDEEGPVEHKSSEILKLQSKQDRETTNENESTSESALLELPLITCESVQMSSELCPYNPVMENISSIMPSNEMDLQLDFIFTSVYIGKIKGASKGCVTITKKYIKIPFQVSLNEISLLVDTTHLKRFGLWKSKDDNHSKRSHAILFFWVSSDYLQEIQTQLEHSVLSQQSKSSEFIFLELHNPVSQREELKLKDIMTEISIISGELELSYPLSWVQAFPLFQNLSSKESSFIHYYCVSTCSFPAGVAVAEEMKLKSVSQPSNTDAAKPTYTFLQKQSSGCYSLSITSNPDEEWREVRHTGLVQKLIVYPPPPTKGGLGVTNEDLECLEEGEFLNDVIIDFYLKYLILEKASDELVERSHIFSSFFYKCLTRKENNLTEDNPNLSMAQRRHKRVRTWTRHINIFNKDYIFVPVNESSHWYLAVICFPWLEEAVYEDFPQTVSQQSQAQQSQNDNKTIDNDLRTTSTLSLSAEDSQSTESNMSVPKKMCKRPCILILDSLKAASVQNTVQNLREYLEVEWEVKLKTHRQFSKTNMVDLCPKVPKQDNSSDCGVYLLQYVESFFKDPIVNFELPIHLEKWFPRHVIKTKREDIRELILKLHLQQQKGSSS
Description: SENP7 protease inhibitors, SAR follow-up, biochemical, luminescence, set 2 (AID 588600). It counts as functional.

Assay [7] concerns the target T4, Sentrin-specific protease 6 (Homo sapiens, UniProt Q9GZR1).
T4 sequence (Q9GZR1 whole entry): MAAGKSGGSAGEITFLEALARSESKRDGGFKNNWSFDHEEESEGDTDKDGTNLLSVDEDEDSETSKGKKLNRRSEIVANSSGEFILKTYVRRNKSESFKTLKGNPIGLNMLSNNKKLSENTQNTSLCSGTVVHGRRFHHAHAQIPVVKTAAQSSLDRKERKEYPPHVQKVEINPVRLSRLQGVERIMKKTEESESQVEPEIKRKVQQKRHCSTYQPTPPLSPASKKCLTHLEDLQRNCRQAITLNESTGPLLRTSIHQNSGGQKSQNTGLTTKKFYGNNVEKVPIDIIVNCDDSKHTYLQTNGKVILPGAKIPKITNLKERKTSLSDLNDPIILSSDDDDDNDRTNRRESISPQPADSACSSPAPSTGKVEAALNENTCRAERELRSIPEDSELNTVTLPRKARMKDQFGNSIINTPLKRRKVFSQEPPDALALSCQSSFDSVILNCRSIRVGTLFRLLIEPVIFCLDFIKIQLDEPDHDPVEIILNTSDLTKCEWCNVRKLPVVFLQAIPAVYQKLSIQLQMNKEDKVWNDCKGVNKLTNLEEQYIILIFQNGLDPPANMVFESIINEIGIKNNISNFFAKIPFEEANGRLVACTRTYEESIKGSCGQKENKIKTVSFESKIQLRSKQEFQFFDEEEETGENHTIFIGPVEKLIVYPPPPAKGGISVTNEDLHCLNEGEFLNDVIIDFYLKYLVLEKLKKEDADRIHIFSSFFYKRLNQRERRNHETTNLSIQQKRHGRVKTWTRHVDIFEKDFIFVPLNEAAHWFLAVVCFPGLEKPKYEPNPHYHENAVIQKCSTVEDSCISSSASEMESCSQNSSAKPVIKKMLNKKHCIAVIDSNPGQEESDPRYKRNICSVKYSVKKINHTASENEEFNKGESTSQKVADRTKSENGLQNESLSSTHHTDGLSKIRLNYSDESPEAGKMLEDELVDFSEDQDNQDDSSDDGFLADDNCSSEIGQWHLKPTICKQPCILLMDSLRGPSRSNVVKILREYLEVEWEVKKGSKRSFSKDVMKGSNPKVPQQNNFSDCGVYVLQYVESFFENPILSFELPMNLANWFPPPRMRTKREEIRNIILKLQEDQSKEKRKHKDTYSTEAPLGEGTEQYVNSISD
In words: SAR Analysis of small molecule inhibitors of Sentrin-specific protease 6 (SENP6) using a Luminescent assay. [Related pubchem assays (depositor defined):AID2582, AID2599]. It counts as functional.

In assay [8] the target is T4, Sentrin-specific protease 6. In words: SENP6 protease inhibitors, SAR follow-up, biochemical, luminescence, set 2 (AID 588598). It counts as functional.
For assay [9], the target named is T3, Sentrin-specific protease 7. In words: SENP7 protease inhibitors, SAR follow-up, biochemical, luminescence (AID 504497). It counts as functional.
The target in assay [10] is ORF 73 (Human herpesvirus 8, UniProt O40947). Description: inhibitors of C-LANA binding to LBS DNA, dose response, biochemical, fluorescence polarization, cherry-picked samples (AID 504725).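 Note: fluorescence polarization of a labeled DNA duplex reporting LANA DNA binding; potency is for inhibitors that block LANA binding to the DNA.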 Set-up: species or system Human gammaherpesvirus 8. Background: Polarisation of emitted light reports the rotation of a fluorescent probe.
In assay [11] the target is Troponin, cardiac muscle (Homo sapiens, UniProt P19429+P45379+P63316). Description: Fluorescence-based biochemical high throughput dose response assay for activators of the calcium sensitivity of cardiac Regulated Thin Filaments (RTF). [Related pubchem assays (depositor defined):AID493008, AID493018, AID504382, AID504383]. It counts as protein-complex assay.
The target of assay [12] is T5, Endoribonuclease toxin MazF (Escherichia coli K-12, UniProt P0AE70). Description: MazF toxin RNase activators, dose response, biochemical, fluorescence, single-stranded RNA substrate, uHTS hits (AID 588481). It is filed as functional.
The target in assay [13] is UDP-galactopyranose mutase (Mycobacterium tuberculosis, UniProt P9WIQ1). Description: Inhibitors of Mycobacterium tuberculosis UDP-galactopyranose mutase (UGM) enzyme Measured in Biochemical System Using Plate Reader - 2105-02_Inhibitor_Dose_CherryPick_Activity. [Related pubchem assays (depositor defined):AID504439].
Assay [14] deals with Keap1/Nrf2 (Homo sapiens, UniProt Q14145). Description: Keap1-Nrf2 protein-protein interaction inhibitors, dose response, biochemical, fluorescence polarization, cherry-picked samples (AID 588683).
Assay [15] deals with T5, Endoribonuclease toxin MazF. Description: fluorescent RNA oligo signal without MazF, dose response, counter-screen for MazEF activator project, biochemical, fluorescence, single-stranded RNase substrate (AID 588502). It counts as functional. For orientation: The purpose of a counterscreen is to sort out artefacts and off-target activity.
A short description of assay [16]: Luminescence-based cell-based high throughput dose response assay to identify activators of the DAF-12 from the parasite S. stercoralis (ssDAF-12). It is filed as functional.
The target of assay [17] is T6, Oxysterols receptor LXR-beta (Homo sapiens, UniProt P55055).
T6 sequence (P55055 whole entry): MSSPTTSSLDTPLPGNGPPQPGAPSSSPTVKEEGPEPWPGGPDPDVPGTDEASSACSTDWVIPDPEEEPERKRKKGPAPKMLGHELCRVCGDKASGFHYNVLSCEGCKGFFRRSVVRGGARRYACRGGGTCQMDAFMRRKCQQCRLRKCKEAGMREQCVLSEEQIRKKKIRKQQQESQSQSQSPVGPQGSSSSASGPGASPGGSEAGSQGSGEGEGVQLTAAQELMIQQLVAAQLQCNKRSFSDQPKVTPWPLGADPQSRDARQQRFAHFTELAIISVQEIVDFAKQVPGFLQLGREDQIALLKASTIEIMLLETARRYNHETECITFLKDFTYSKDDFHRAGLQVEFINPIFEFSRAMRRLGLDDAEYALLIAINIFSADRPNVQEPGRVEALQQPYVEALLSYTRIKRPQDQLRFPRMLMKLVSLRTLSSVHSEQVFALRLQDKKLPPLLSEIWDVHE
Description: LXR agonists, Gal4 luciferase reporter, dose response, counter-screen for ssDAF-12 agonist project, cell-based, luminescence, HEK293, S. stercoralis campaign (AID 720737). It is filed as functional. To be noted: read-out: IC50 (the source's name). A general note: Reporter assays use an easily measured gene product as a stand-in for the process of interest.

The test system of assay [18] is Jurkat. In words: SAR Analysis of small molecule inhibitors of […] specific antigen receptor-induced NF-kB activation in a Jurkat cell line using a luminescence assay - Set 3. [Related pubchem assays (depositor defined):AID435022, AID435025, AID465]. To be noted: Homo sapiens. It is filed as functional, cell-based.
Assay [19] deals with HEK293. In words: SAR Analysis of small molecule inhibitors of B-cell specific antigen receptor-induced NF-kB activation in a HEK-293T cell line using a luminescence assay - Set 2. [Related pubchem assays (depositor defined):AID435022, AID435025, AID489021]. It is filed as functional, cell-based. To be noted: Homo sapiens.
Assay [20] deals with HEK293. In words: cytotoxicity in HEK293T NF-kB-Luc cells, SAR follow-up, cytotoxicity control for NF-kB activator project, cell-based, resazurin fluorescence (AID 493251). It is filed as functional. To be noted: Homo sapiens.

Active and inactive are the calls of the source.

T5 sequence (P0AE70 whole entry): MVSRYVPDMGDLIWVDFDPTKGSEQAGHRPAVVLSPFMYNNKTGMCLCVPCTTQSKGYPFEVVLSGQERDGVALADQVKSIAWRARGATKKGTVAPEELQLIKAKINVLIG
UDP-galactopyranose mutase, sequence (P9WIQ1 whole entry): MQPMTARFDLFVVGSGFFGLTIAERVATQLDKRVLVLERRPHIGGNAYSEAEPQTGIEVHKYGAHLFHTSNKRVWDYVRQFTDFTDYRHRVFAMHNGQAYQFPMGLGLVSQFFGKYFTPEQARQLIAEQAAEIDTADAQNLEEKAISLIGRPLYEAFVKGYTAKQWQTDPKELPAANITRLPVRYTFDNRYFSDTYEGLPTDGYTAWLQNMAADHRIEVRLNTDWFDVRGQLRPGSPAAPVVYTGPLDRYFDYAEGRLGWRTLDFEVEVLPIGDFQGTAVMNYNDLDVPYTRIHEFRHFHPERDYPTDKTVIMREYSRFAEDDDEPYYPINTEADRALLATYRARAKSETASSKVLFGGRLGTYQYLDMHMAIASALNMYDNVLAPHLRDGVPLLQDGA
ORF 73, sequence (O40947 whole entry): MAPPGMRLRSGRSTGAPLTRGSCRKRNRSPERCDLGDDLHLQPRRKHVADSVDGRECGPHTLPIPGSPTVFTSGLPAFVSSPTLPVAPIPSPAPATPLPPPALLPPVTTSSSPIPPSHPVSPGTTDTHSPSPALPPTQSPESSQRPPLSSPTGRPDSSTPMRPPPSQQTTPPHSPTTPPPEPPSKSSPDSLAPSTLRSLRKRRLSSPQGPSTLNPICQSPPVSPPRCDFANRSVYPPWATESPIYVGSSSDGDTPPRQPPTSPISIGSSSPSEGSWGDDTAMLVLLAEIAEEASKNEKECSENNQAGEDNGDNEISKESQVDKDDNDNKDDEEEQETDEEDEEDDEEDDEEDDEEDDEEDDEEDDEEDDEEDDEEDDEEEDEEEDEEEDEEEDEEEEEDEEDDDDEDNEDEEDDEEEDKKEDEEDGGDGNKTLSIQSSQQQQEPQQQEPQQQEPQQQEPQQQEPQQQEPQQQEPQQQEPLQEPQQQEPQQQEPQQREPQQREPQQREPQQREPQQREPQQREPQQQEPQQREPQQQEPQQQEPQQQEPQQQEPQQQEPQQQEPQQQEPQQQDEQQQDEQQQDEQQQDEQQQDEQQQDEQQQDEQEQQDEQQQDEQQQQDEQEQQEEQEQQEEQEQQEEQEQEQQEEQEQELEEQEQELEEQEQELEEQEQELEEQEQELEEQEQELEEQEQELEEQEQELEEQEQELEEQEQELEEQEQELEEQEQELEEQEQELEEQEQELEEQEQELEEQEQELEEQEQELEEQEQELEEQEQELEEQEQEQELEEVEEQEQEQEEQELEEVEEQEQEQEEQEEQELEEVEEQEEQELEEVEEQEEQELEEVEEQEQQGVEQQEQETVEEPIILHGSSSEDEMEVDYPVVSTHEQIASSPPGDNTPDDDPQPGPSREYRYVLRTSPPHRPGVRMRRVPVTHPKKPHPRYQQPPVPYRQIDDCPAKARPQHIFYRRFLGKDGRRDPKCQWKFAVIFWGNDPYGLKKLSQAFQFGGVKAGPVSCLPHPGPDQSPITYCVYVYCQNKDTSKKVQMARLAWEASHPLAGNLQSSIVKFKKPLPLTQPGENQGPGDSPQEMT
Phospholipase D1, sequence (Q13393 whole entry): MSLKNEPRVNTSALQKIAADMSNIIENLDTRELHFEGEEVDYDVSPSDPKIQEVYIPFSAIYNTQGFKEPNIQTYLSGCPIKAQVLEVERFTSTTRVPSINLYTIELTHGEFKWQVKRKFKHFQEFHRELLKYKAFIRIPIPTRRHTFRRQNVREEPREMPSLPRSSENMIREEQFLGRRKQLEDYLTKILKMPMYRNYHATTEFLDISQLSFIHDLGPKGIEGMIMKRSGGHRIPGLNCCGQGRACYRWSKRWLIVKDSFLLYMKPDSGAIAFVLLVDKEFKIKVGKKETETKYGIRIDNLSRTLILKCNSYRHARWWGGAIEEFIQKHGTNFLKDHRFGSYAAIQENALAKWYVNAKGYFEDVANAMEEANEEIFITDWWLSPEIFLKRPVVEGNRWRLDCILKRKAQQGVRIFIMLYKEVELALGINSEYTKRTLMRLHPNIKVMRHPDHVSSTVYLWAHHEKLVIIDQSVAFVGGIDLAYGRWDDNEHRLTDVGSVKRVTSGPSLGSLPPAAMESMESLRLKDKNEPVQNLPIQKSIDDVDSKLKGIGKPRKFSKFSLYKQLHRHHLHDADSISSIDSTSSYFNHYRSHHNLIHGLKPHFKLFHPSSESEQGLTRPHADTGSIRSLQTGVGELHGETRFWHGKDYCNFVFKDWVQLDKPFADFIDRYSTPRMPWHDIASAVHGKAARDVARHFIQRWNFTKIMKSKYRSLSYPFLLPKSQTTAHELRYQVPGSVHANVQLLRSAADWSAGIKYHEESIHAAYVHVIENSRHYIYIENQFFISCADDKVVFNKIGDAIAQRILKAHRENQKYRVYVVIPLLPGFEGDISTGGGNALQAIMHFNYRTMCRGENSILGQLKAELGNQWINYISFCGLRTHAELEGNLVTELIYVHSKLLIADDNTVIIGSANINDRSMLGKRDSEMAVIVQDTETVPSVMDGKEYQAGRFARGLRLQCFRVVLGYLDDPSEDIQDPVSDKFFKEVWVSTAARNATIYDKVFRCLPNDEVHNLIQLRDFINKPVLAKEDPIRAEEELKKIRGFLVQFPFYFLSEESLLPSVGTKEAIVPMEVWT
Keap1/Nrf2, sequence (Q16236 whole entry): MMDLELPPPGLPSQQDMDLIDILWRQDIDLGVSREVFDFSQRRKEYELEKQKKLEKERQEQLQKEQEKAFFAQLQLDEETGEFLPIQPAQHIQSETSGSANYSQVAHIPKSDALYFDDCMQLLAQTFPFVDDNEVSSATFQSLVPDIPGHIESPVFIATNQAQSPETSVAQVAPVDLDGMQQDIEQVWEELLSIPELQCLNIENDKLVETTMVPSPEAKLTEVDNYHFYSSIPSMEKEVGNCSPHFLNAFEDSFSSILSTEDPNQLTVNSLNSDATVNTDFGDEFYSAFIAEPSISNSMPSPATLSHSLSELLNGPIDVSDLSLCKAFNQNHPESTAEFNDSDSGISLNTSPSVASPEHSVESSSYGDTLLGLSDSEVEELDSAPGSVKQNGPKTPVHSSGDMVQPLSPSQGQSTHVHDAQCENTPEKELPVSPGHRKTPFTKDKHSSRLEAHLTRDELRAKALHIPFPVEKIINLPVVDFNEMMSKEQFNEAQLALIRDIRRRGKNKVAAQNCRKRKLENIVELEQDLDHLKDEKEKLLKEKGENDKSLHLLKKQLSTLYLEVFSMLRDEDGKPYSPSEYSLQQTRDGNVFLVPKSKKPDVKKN
Keap1/Nrf2, sequence (Q14145 whole entry): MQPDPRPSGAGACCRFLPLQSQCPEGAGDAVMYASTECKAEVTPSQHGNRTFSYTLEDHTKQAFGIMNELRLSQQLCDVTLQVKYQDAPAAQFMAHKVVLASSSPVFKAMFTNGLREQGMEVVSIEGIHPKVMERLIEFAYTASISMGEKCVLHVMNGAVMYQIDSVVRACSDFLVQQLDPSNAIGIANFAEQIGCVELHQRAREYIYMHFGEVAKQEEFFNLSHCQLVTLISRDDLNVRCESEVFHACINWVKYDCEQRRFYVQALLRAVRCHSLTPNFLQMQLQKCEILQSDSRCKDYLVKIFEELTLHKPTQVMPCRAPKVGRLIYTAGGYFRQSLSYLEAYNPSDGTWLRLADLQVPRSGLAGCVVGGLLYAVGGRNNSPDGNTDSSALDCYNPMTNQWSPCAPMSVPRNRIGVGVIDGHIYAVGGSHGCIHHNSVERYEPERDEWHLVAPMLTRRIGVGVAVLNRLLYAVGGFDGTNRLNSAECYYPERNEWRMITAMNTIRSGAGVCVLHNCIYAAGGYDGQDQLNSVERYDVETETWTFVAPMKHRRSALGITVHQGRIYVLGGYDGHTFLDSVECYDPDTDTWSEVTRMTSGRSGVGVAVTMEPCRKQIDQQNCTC

What is called IC50 is the concentration that inhibits the measured activity by half. Take `O=C(NCCN1CC=C(n2c(=O)[nH]c3ccccc32)CC1)C1CC1c1ccccc1` (stereo not given): the half-maximal inhibitory concentration (IC50) in [1] was 0.2 µM (active).

Turning to `Fc1cccc(F)c1-c1nc(/C=C/c2ccccc2)no1`, the IC50 in assay [2] was 15 µM (active); in assay [3], 18 µM (active); in assay [4], 6.98 µM (active); in [5] it was 20 µM (active); in assay [6] it was 8.02 µM (active); in [7], 14 µM (active). Besides, the IC50 is 6.72 µM (active) in [8] and 5.5 µM (active) in [9].

The AC50 is the concentration giving half of the maximal activity seen. Consider `CN(N=Nc1ccc([N+](=O)[O-])cc1)c1ccccc1`, for which the AC50 in assay [10] is 11.4 µM (active); in assay [13] it was 28.7 µM (active); in [14], 21.8 µM (active). Moreover, the EC50 was 5.61 µM (active) in [11], > 99 µM (inactive) in assay [12], 31 µM (inactive) in assay [15] and > 67.6 µM (inactive) in assay [17]. Moreover, the IC50 in assay [16] was > 67.6 µM (inactive).

In the case of `CC(C)NC(=O)CCc1nc(-c2ccc(C(C)(C)C)cc2)no1`, the IC50 was 29.2 µM (inactive) in [18], 13.5 µM (active) in assay [19] and > 80 µM (inactive) in [20].
